Measured values taken from patent US20200131669A1, “CYCLIC PEPTIDE COMPOUND HAVING HIGH MEMBRANE PERMEABILITY, AND LIBRARY CONTAINING SAME” (Chugai Seiyaku Kabushiki Kaisha, priority 2017, published 2020).
Starred links: 1 amine or outer side, 2 acyl side, 3 side chain; linkers in the order of their positions; H or OH if unused. Positions of bridges follow the written chain, without caps; N, C: chain ends. Non-standard residues stand in square brackets, D forms with d. Residues, ends and D or L forms follow the SMILES beside them. *: point of attachment. Glu(NHSO2Me) = CS(=O)(=O)NC(=O)CC[C@H](N)C(=O)O; NMeW = CN[C@@H](Cc1c[nH]c2ccccc12)C(=O)O; NMeF = CN[C@@H](Cc1ccccc1)C(=O)O; NMeGABA = CN(CCCC(=O)[*:2])[*:1]; NMeI = CC[C@H](C)[C@H](NC)C(=O)O; NMeL = CN[C@@H](CC(C)C)C(=O)O; NMeV = CN[C@H](C(=O)O)C(C)C; NMeAbu = CC[C@H](NC)C(=O)O; NMeA = CN[C@@H](C)C(=O)O; Piperidide = C1CCN(*)CC1; NBuGly = CCCCNCC(=O)O; Sar = CNCC(=O)O; tBu = CC(C)(C)*

assay: Caco-2 membrane permeability, improved method as used in the following Examples (96-well, 20 to 24 h preincubation); format: in vitro ADME; details: human, Caco-2, Caco-2
Description: In the following Examples, membrane permeability was measured in accordance with the improved method established as described above. Specifically, Caco-2 cells were cultured on a 96-well Transwell for three weeks, after which DMEM+FaSSIF (1% DMSO)+compound were added to the apical side and DMEM was added to the basal side, and the cells were preincubated at 5% CO2, 37° C., and 80 rpm for 20 to 24 hours. Following the preincubation, measurement of membrane permeability was initiated by removing the preincubation solution on the apical and basal sides by suction, washing the membrane, and adding FaSSIF/HBSS buffer (1% DMSO) (pH 6.0) containing the compound to the apical side and HBSS buffer (4% BSA) (pH 7.4) to the basal side. Each well was shaken at 5% CO2, 37° C., and 80 rpm, and 180 minutes after the initiation, the sample on the basal side was collected and the permeation amount was measured by LC/MS. The membrane permeability coefficient (Papp) was calculated from the permeation amount. Herein, the terms “Caco-2 (cm/sec)” in the columns in the tables and “Papp (cm/sec)” are used in the same meaning.

Compound | Papp A→B at 180 min [×10⁻⁶ cm/s]
CCCCN1CC(=O)N(C)[C@@H](CC(C)C)C(=O)N[C@@H](COC(C)(C)C)C(=O)N(C)[C@@H](Cc2ccccc2)C(=O)N(C)[C@@H](C(C)C)C(=O)N[C@H](C(=O)N2CCCCC2)CC(=O)N[C@H](C(C)C)C(=O)N(C)[C@@H](Cc2ccccc2)C(=O)N[C@@H](CCC(=O)NS(C)(=O)=O)C(=O)N(C)[C@@H](CC(C)C)C(=O)N[C@@H](CC(C)C)C1=O [pd67] ([dV][NMeF][Glu(NHSO2Me)][NMeL]L[NBuGly][NMeL]S(tBu)[NMeF][NMeV]D-Piperidide; lactam N-11) | 0.06
CC(C)C[C@@H]1NC(=O)[C@H](CC(C)C)N(C)C(=O)CCCN(C)C(=O)C[C@@H](C(=O)N2CCCCC2)NC(=O)[C@H](CC(C)C)N(C)C(=O)[C@H](CC(C)C)N(C)C(=O)[C@H](CC(C)C)NC(=O)[C@H](CC(C)C)N(C)C(=O)[C@H](CCC(=O)NS(C)(=O)=O)NC(=O)[C@H](Cc2ccccc2)N(C)C(=O)[C@H](Cc2ccccc2)N(C)C1=O [pd68] ([NMeGABA][NMeL]L[NMeF][NMeF][Glu(NHSO2Me)][NMeL]L[NMeL][NMeL]D-Piperidide; lactam N-11) | 0.1
CCCCN1CC(=O)N(C)[C@@H](C(C)C)C(=O)N[C@H](C(=O)N2CCCCC2)CC(=O)N(C)[C@@H](CC)C(=O)N[C@@H](CC(C)C)C(=O)N(C)[C@@H](CC(C)C)C(=O)N(C)[C@@H](Cc2ccccc2)C(=O)N[C@@H](CCC(=O)NS(C)(=O)=O)C(=O)N(C)[C@@H](Cc2ccccc2)C(=O)N(C)[C@@H](CC(C)C)C(=O)N[C@@H](CC(C)C)C1=O [pd69] ([NMeAbu]L[NMeL][NMeF][Glu(NHSO2Me)][NMeF][NMeL]L[NBuGly][NMeV]D-Piperidide; lactam N-11) | < 0.14
CCCCN1CC(=O)N(C)[C@@H](Cc2ccccc2)C(=O)N[C@@H](CCC(=O)NS(C)(=O)=O)C(=O)N(C)[C@@H](CC(C)C)C(=O)N[C@@H](CC(C)C)C(=O)N(C)CC(=O)N(C)[C@@H](Cc2ccccc2)C(=O)N(C)[C@@H](CC(C)C)C(=O)N[C@@H](CC(C)C)C(=O)N(C)[C@@H](CC(C)C)C(=O)N[C@H](C(=O)N2CCCCC2)CC1=O [pd70] ([NBuGly][NMeF][Glu(NHSO2Me)][NMeL]L[Sar][NMeF][NMeL]L[NMeL]D-Piperidide; lactam N-11) | 0.17

same assay, conditions: human, Caco-2, Caco-2 (cm/sec)

Compound | Papp A→B at 180 min [×10⁻⁶ cm/s]
CC(C)C[C@@H]1NC(=O)[C@H](CC(C)C)N(C)C(=O)[C@H](C)N(C)C(=O)[C@@H](C(C)C)NC(=O)C[C@@H](C(=O)N2CCCCC2)NC(=O)[C@H]([C@@H](C)O)NC(=O)[C@H](C)N(C)C(=O)CN(C)C(=O)[C@H](CC(C)C)N(C)C(=O)[C@H](Cc2c[nH]c3ccccc23)NC(=O)[C@H](Cc2ccccc2)N(C)C1=O [pd100] ([dV][NMeA][NMeL]L[NMeF]W[NMeL][Sar][NMeA]TD-Piperidide; lactam N-11) | 0.11
CC[C@H](C)[C@H]1C(=O)N[C@@H](Cc2c[nH]c3ccccc23)C(=O)N(C)CC(=O)N(C)[C@@H](C)C(=O)N[C@H](C(=O)N2CCCCC2)CC(=O)N(C)[C@@H](C)C(=O)N[C@@H](CC(C)C)C(=O)N(C)[C@@H](CC(C)C)C(=O)N(C)[C@@H](CC(C)C)C(=O)N[C@@H](C)C(=O)N(C)[C@@H](CC(C)C)C(=O)N1C [pd101] ([NMeA]L[NMeL][NMeL]A[NMeL][NMeI]W[Sar][NMeA]D-Piperidide; lactam N-11) | 0.13
CC[C@H](C)[C@H]1C(=O)N[C@@H]([C@@H](C)O)C(=O)N(C)CC(=O)N(C)[C@@H](CC(C)C)C(=O)N[C@H](C(=O)N2CCCCC2)CC(=O)N(C)[C@@H](C)C(=O)N[C@@H](CC(C)C)C(=O)N(C)[C@@H](CC(C)C)C(=O)N(C)[C@@H](Cc2c[nH]c3ccccc23)C(=O)N[C@@H](C(C)C)C(=O)N(C)[C@@H](CC(C)C)C(=O)N1C [pd102] ([NMeA]L[NMeL][NMeW]V[NMeL][NMeI]T[Sar][NMeL]D-Piperidide; lactam N-11) | 1.1
